# Assay results from patent US5336485A, “Method for protecting animals against tacrine induced cytotoxic injury using sterol compounds” (priority 1993, dated 1994).
# Structures can show the parent of a compound that is named as a salt.
# Legend:
# [1] = Blood alpha-TS content after oral dosing in humans; assay type: in vivo, human; settings: 400 units per day, one month, three males
# Text: In a one month study with three human males aging from 35 to 62 years 400 units of alpha-tocopheryl succinate were taken per day. Subsequent blood samples were taken from each individual and analyzed for alpha-T and alpha-TS content. […] However, in select individuals, as determined possibly by ethnic origin or diet, tissue alpha-TS accumulation can occur with oral dosing. The absence of alpha-TS hydrolysis in the gut of the one individual in the study who had substantial amounts of alpha-TS in plasma may be attributed to the absence of duodenal secretions after oral alpha-TS administration (lack of dietary fats to stimulate duodenal secretions at the time of alpha-TS administration).
# [2] = tested on: skin lesion; test: Topical treatment of dermal injury in a human; assay type: in vivo
# Procedure: In one case, the middle knuckle of the left hand of a person was injured by the removal of a small wart with liquid nitrogen. Two months following the liquid nitrogen insult, the injured area (approximately 1 cm in diameter) was characterized by scar tissue raised several millimeters above the surrounding normal skin. At this time, the lesion was treated by wetting the injured area with alpha-TS dissolved in dimethyl sulfoxide (100mg/ml), daily for a period of two weeks. […] One year following the last alpha-TS treatment, the once injured area remains indistinguishable from the surrounding normal tissue. In another case, a person's lip was severely sunburned. Topical lip cremes and antibiotic cremes were used for several weeks following the ultraviolet insult with minimal therapeutic benefit. At this time, the lesion was treated by wetting the injured area with alpha-TS dissolved in dimethyl sulfoxide (100mg/ml) daily for a period of 1 week. […] In another case, the arch of the left foot of a person was inflamed and blistered from contact dermatitis or stress dermatitis. Six months after unsuccessful treatment on this lesion with betamethasone, the injured area was treated by wetting the injured area with alpha-TS dissolved in dimethyl sulfoxide (100 mg/ml) twice daily for a period of 1 week. […] It is also evident from these cases that alpha-TS is the active component that promotes wound healing and prevents scar formation.
# [3] = tested on: rat hepatocytes; test: ATP content of rat hepatocyte suspensions; assay type: cell-based
# Text: It is well known that the succinate molecule is utilized by the cell to produce ATP energy. In the tricarboxylic acid cycle, succinate is oxidized by succinate dehydrogenase to produce ATP. Oxidation occurs in the mitochondria and the mitochondria can utilize both succinate formed in the mitochondria or succinate transported to the mitochondria. Increasing ATP production may enhance cellular repair processes as well as normal metabolic processes. For example, the cell's ability to remove free intracellular Ca^2+ during a toxic insult is related to ATP production. Succinate administration stimulates gluconeogenesis to form glucose 6-phosphate which is used for producing energy anaerobically (ATP formation through glycolysis) and for producing reducing equivalents (NADPH formation through the hexose monophosphate shunt needed for lipid and nucleotide biosynthesis and other biosynthetic reductions and enzymatic reactions, e.g., glutathione reductase). An in vitro experiment was conducted to determine the relationship between the release of succinate from alpha-TS and the cellular ATP level. The experiment was performed by incubating a tocopherol analog in a rat hepatocyte suspension and measuring the ATP level at the beginning and end of the test.
# Rat hepatocyte suspensions were subjected to 50 mM EMS and the percentage of cell death, the percentage of intracellular K^+ (a metabolic parameter as discussed above), the depletion of ATP and the effect on lipid peroxidation were monitored.
# [4] = tested on: CDF1 mice; test: Doxorubicin lethality in CDF1 mice (normal tissue); assay type: in vivo, mouse; settings: 100 mg/kg ip 20 h prior, DOX 10, 15, 20, 25 mg/kg
# Procedure: The experiments were conducted in accordance with NCI Protocol 1,100. FIGS. 8a-d show the experimental results obtained when male CDF1 mice (n=6) received either vehicle only or 100mg/kg body weight i.p. dose of either alpha-TS or cholesteryl succinate 20 hours prior to DOX administration. FIGS. 8a-d respectively show the results obtained when the mice received 10, 15, 20, and 25 mg DOX/kg body weight. […] FIGS. 9a-d show the experimental results obtained when male CDF1 mice ([…]) were injected (i.p.) with 10^6 murine L1210 leukemia cells followed immediately by an injection of alpha-TS tris salt (100 mg/kg, i.p.) or saline injection (vehicle), and twenty hours later (Day=0) each mouse in three of the groups was i.p. injected with 15, 20, or 25 mg DOX/kg body weight ([…]). Survival was monitored for twenty days.
# [5] = tested on: central nervous system; test: CCl4 central nervous system toxicity in rats; assay type: in vivo, rat; settings: pretreatment
# [6] = tested on: platelet phospholipase A2; settings: cited from earlier work
# [7] = tested on: mouse melanoma cells B-16; settings: cited from earlier work
# [8] = tested on: liver; test: Partial liver ischemia/reperfusion-induced injury in rats; assay type: in vivo, rat
# Procedure: 20 hours prior to global occlusion, one group of 10 rats was provided with 64 mg cholesterol/kg body weight and 100 mg tris succinate/kg body weight by i.p. injection, and another group of 10 rats was provided with 100 mg cholesteryl succinate/kg body weight. A control group of rats was only partially occluded for the one hour period. Ninety percent of the rats pretreated with cholesteryl succinate tris salt survived while only 10% of those pretreated with the combination of cholesterol and tris succinate survived. Table 22 of a partial ischemia study where male Sprague-Dawley rats were subjected to occlusion of the blood supply to the left lateral and median lobes of the liver for 60 minutes followed by reperfusion for 24 hours. During this time, the normal blood supply to the other lobes of the liver was maintained. […] Serum was obtained for AST and ALT measurements.
# ^a Partial liver ischemia was induced in male Sprague Dawley rats
# [9] = 100 mg/kg ip, 20 hours prior to ischemia
compound,measurement,setting,value
"Cc1c(C)c2c(c(C)c1OC(=O)CCC(=O)O)CC[C@@](C)(CCC[C@H](C)CCC[C@H](C)CCCC(C)C)O2 [alpha-TS, d-alpha-tocopheryl succinate]",alpha-TS in plasma and erythrocytes,[1],Substantial amounts of alpha-TS in plasma and erythrocytes were observed for only one individual
same,healing of sunburned lip,"[2]; topical 100 mg/ml in DMSO daily, 1 week",rapid healing of the lip without scar formation
same,healing of injured area (liquid nitrogen),"[2]; topical 100 mg/ml in DMSO daily, two weeks",rapid healing of the injured area with the elimination of scar tissue
same,healing of foot lesion (dermatitis),"[2]; topical 100 mg/ml in DMSO twice daily, 1 week",rapid healing of the foot lesion with the dissolution of both inflammation and blisters
same,Rate of ATP Depletion,[3]; 25 μM,1.0 ± 0.1 nmoles/10^6 cell/hr
same,Cellular ATP,"[3]; 25 μM, 0 Hr",20.1 ± .5 nmoles/10^6 cells
same,Cellular ATP,"[3]; 25 μM, 6 Hr",14.2 ± 0.8 nmoles/10^6 cells
same,Rate of ATP Depletion,[3]; 250 μM,0.6 ± 0.3 nmoles/10^6 cell/hr
same,Cellular ATP,"[3]; 250 μM, 0 Hr",15.2 ± 1.6 nmoles/10^6 cells
same,Cellular ATP,"[3]; 250 μM, 6 Hr",11.7 ± 2.0 nmoles/10^6 cells
same,% Initial Intracellular [ATP],"[3]; 50 mM EMS, 5 Hrs, 25 μM (Table 15)",45 ± 2 % Initial
same,"survival after DOX, normal mice (FIGS. 8a-d)",[4],survived significantly longer
same,recovery from acute CNS toxic manifestations of CCl4,[5],several days before rats which are not treated with alpha-TS
same,inhibition of platelet phospholipase A2 activity,[6],inhibits platelet phospholipase A2 activity
same,tumor cell growth,[7]; 10 μM,inhibits tumor cell growth
same,morphological differentiation,[7],induce morphological differentiation
CC(C)CCC[C@@H](C)[C@H]1CC[C@H]2[C@@H]3CC=C4C[C@@H](OC(=O)CCC(=O)O)CC[C@]4(C)[C@H]3CC[C@]12C [Cholesteryl Succinate tris salt],ALT,"[8]; 25 mg/kg ip, vehicle 1027±235",358±38
same,ALT,[8]; [9],554 ± 213 Units/L
same,AST,[8]; [9],1800 ± 904 Units/L
same,ALT,"[8]; 100 mg/kg ip, during ischemia",387 ± 155 Units/L
same,AST,"[8]; 100 mg/kg ip, during ischemia",967 ± 68 Units/L
same,protection in fed and fasted rats,"[8]; rat, in vivo",Protection was observed for both fed and fasted rats
